From EPA's ToxValDB 9.5 (doi:10.2903/j.efsa.2017.4981)
“And” between values parts separate entries of the source, which are not always exact repeats. Equal entries are not always repeated.

Experiments:
[1] = system: Tagia sp.; settings: chronic/long-term, duration: 56 days
[2] = system: Folsomia candida; settings: chronic/long-term; duration: 28 days; mortality
[3] = system: Canidae; settings: oral, Dog Other, body weight
[4] = system: Rattus norvegicus; settings: for LD50: acute, mortality
[5] = system: Colinus virginianus
[6] = system: Anas platyrhynchos; settings: reproductive
[7] = system: Oncorhynchus mykiss; settings: mortality
[8] = system: Plant; settings: chronic/long-term; duration: 4 months
[9] = system: Typhlodromus pyri; settings: acute; mortality
[10] = system: Apis mellifera; settings: acute, duration: 48 hours, mortality
[11] = system: Daphnia magna; settings: chronic/long-term; duration: 21 days; reproduction
[12] = chronic, duration: 2 years, oral, diet, organ weight
[13] = reproduction developmental, reproduction
[14] = subchronic, duration: 90 days, oral, diet, F, organ weight

Compound: CC(C)=C(c1ccccc1)N(CC(=O)O)C(=O)CS(=O)(=O)O [N-(2-Methyl-1-phenylprop-1-en-1-yl)-N-(sulfoacetyl)glycine]
- NOEC ([1]; growth): 60 mg/kg
- NOEC [2]: 100 mg/kg

Compound: CCOCCN(C(C)=O)C(=C(C)C)c1ccccc1
- NOEC ([1]; growth): 30 mg/kg
- NOEC [2]: 50 mg/kg
- NOAEL ([3]; subchronic, duration: 90 days): 8 mg/kg-day
- NOAEL [4, 12]: 1 mg/kg-day
- NOAEL [4, 13]: 8 mg/kg-day
- NOAEL [4, 14]: 8 mg/kg-day

Compound: CCOCCN(C(=O)CS(=O)(=O)O)C(=C(C)C)c1ccccc1
- NOEC ([1]; growth): 100 mg/kg
- NOEC [2]: 93.3 mg/kg
- LD50 ([4]; oral): > 2000 mg/kg-day
- NOAEL ([4]; short-term, duration: 4 weeks, oral, diet): 410 mg/kg-day

Compound: CCOCCN(C(=O)CCl)C(=C(C)C)c1ccccc1 [Pethoxamid]
- NOEC ([1]; reproduction): 0.8 mg/kg
- LD50 ([5]; acute, oral, mortality): 872 mg/kg-day
- NOEL ([5]; reproduction developmental): 100 mg/kg-day
- NOEL [6]: 396 mg/kg-day
- LC50 ([7]; acute, duration: 96 hours): 2.2 µg/mL and 2.19 µg/mL
- NOEC ([7]; chronic/long-term, duration: 94 days): 0.0924 mg/L
- NOAEC [8]: 8 µg/L
- LEC [9]: ≤ 1200 g/ha
- NOAEL ([3]; chronic, duration: 1 years): 2 mg/kg-day
- NOAEL ([3]; subchronic, duration: 90 days): 8 mg/kg-day
- LD50 ([10]; dermal): > 200 µg/piece
- LD50 ([10]; oral, unspecified): > 200 µg/piece
- LD50 ([4]; oral, M): 983 mg/kg-day
- NOAEL [4, 12]: 1 mg/kg-day
- NOAEL ([4]; reproduction developmental, oral, diet, F, reproduction): 24 mg/kg-day
- NOAEL [4, 13]: 8 mg/kg-day
- NOAEL [4, 14]: 8 mg/kg-day
- NOEC [11]: 2.8 mg/L
